Test results from patent US20230381378A1, “METHODS AND COMPOSITIONS FOR THE TREATMENT OF IMPLANT ASSOCIATED COMPLICATIONS” (The Board of Trustees of the Leland Stanford Junior …, priority 2020, published 2023).

Target: T1, Rac2 (Mus musculus, UniProt Q05144)
T1 construct: reduced the expression of immune cell-specific Rac2 in the FBR capsules by about 80%; from tissue; host or cells: FBR capsule tissue around mechanically stimulating implants in C57/BL6 wild-type mice (Jackson labs Stock No: 000664)
Assay: Rac inhibition in the mechanically stimulating implant (MSI) mouse model of foreign body response
Assay type: in vivo
Details: C57/BL6 wildtype mice
Description: Implantation Experiments. Standard silicone implants and MS's were implanted in C57/BL6 mice for either 2 weeks or 1 month. A 2 cm incision was made on the dorsum of the mouse and a subcutaneous pocket was created. Control implants were placed in the subcutaneous pocket and the incision was closed using 6-0 nylon suture or staples. For vibration-enabled implants, the implants were placed into a subcutaneous pocket, similar to the procedure described above and wires were guided through the skin using a modified seldinger technique. 3V batteries with an amplitude of 1.38 G and a frequency of 203 Hz were used to mimic human conditions. MS's were vibrated for 1 hour daily from day 4 (D4) post implantation to day 11 (D11). This time period was chosen based on previous studies, showing that increased mechanical stress during this period effectively induces fibrosis.
Histology and Trichrome staining. At each timepoint, the mice were euthanized, and the implants were resected en bloc with the surrounding scar tissue. The implants were removed and the scar tissue along with the skin was fixed in 4% paraformaldehyde overnight and embedded in paraffin. Scar tissue and implants from humans were collected from patients and processed within an hour. For analysis of the capsule, paraffin sections were stained with trichrome (SigmaAldrich) as described previously. Imaging was performed on a Leica DM5000 B upright microscope. Image analysis software (Image J) was used to quantify collagen staining.
Immunostaining. Immunohistological staining was performed on paraffin sections as described previously. Briefly, heat-based antigen retrieval was followed by blocking with 5% goat serum in PBS. The following primary antibodies were used at a 1:200 dilution (as recommended by the manufacturer) and incubated overnight at 4° C.: anti-a-SMA (Abcam ab5694) or anti-Rac2 (Fischer Scientific, DF6273). Incubation of primary antibody-stained specimens with Alexa Fluor 488 secondary antibody (Thermo Fisher Scientific) was performed at a 1:400 dilution for 1 hour at room temperature. Sections were subsequently mounted using Fluoroshield (F6057, Sigma, Saint Louis, MO) with 4′, 6-diamidino-2-phenylindole (DAPI) to stain cell nuclei. Imaging was performed on a Leica DM5000 B upright microscope. Image analysis was performed using Matlab.
Rac Inhibition Experiments. EHT 1864 2HCl, a potent Rac family GTPase inhibitor, was acquired from Selleckchem (Houston, TX). MS's were implanted in C57/BL6 wildtype mice for 28 days utilizing the modified Seldinger technique described above. Mice were injected with EHT 1864 2HCl (10 mg/kg/day) (n=4) or saline (n=4) from Days 0-26. FBR capsule tissue was explanted on day 28 and processed for histologic analysis.
Statistical Analyses. Results are presented as mean±SEM. Standard data analysis was performed using student's ttests. ANOVA with posthoc tukey's test was used for multiple comparisons. Results were considered significant for *p<0.05.

[1] = 10 mg/kg/day Days 0-26 vs saline, day 28
[2] = local injection 10 mg/kg/day Days 0-26 vs saline, capsule explanted day 28

Cl.Cl.O=c1cc(CN2CCOCC2)occ1OCCCCCSc1ccnc2cc(C(F)(F)F)ccc12 [EHT 1864 2HCl]
capsule thickness (H&E staining) [1]: decreased
collagen deposition (trichrome staining) [1]: decreased
overall FBR [1]: significantly reduced
reduction in the activation of myofibroblasts in MSI capsules (aSMA immunostaining) [2]: about 90%
reduction of expression of immune cell-specific Rac2 in the FBR capsules (immunostaining, percent area positive) [2]: about 80%
